# Data: US20170246130A1, “4-HYDROXYBENZOHYDARZIDE-A NEW CLASS OF ANGIOGENIC ENZYME THYMIDINE PHOSPHORYLASE INHIBITORS” (priority 2016, published 2017)
# Entries after “also recorded” stand apart in the source; their conditions may differ. Like-named read-outs stand apart in the source and are kept apart here.
# Experiments:
# [1] = tested on: prostate cancer line (PC3); assay: MTT anti-proliferative assay, PC3 cells; type: cell-based; details: for IC50: read-out: IC50 ± SD (μM), PC3 Cell Line; for inhibition of the proliferation of PC3 cancer cells (in words): in comparison of doxorubucin
# Description: (§1) Compounds found to be active in inhibiting thymidine phosphorylase were then subjected to MTT proliferation assay. Rapid proliferation is the property inherent to cancerous/tumor cells. This assay was carried out to study the effect of these compounds on proliferation of various cell lines. The cell lines which we targeted were mouse fibroblast cell line (3T3), and prostate cancer line (PC3).
# (§2) Anti-proliferative activity of active compounds was evaluated by using the standard MTT (3-[4,5-dimethylthiazole-2-yl]-2,5-diphenyl-tetrazolium bromide) colorimetric assay in 96-well plate (Dimas et al., 1998).
# (§3) It is a colorimetric assay that measures the reduction of MTT, by mitochondrial enzyme i.e. succinate dehydrogenase. The MTT enters into the mitochondria of cell, where it is reduced to an insoluble formazan salt (FIG. 8). The extent of MTT reduction was measured at 540 nm. As reduction of MTT can only occur in metabolically active cells, the level of activity is actually a measure of the viability of the cells (Vega-Avila and Pugsley, 2011).
# (§4) Mouse fibroblast cell line 3T3 was cultured in DMEM, supplemented with 5% of FBS, 100 IU/mL of penicillin and 100 μg/mL of streptomycin, and kept at 37° C. in 5% CO2 incubator. For the preparation of cell culture, 100 μL/well of cell solution (5×10^4 cells/mL) was added into 96-well plate. The plate was incubated for overnight, and fresh medium was added after the removal of old medium. The test compounds were also added in different concentrations into the plate and plate was again incubated for 48 h. After the completion of this incubation period, 200 μL MTT (0.5 mg/mL) was added and plate was again incubated for 4 h, after this final incubation 100 μL of DMSO was added to each well. The level of MTT reduction to formazan was evaluated by change in absorbance at 540 nm using a micro plate reader (Spectra Max plus, Molecular Devices, CA, USA).
# [2] = target: T1, thymidine phosphorylase (E. coli) (Escherichia coli, UniProt P07650); assay: In-vitro thymidine phosphorylase inhibition assay (spectrophotometric); type: biochemical; details: recombinant E. coli TP, thymidine substrate, pH 7.0, 30° C., 290 nm; for IC50: read-out: IC50 (μM ± S.E.M.), thymidine phosphorylase inhibition
# T1 construct: purchased Sigma Aldrich, USA; host or cells: Escherichia coli
# Description: In vitro studies on thymidine phosphorylase were carried out in 96-well microtiter plate using Spectra Max-340 and Spectra Max-384 spectrophotometers (Molecular Devices, CA, USA). Deionized water used for buffer preparation was collected by Simplicity Water Purification System (Milipore).
# Since human TP is not commercially available, we used commercially available recombinant E. coli TP (expressed in Escherichia coli) enzyme. Primary sequence of TP is mostly conserved throughout the evolution as mammalian TP share 39% sequence similarity with TP of E. coli. The mammalian enzyme also shared 65-70% similarity with the active site residues of E. coli TP enzyme (Bronckaers et al., 2009). Assay for thymidine phosphorylase inhibition was performed spectrophotometrically, following method of Bera et al. with some modifications (Bera et al., 2013).
# The reaction catalyzed by thymidine phosphorylase involves reversible phosphorolysis of thymidine (FIG. 1), to thymine and 2-deoxyribose-1-phosphate (Bronckaers et al., 2009).
# Reaction mixture contained 150 μL of potassium phosphate buffer (pH 7.0, 50 mM), 20 µL of enzyme (0.058 U/well) and 10 μL of test compound (0.5 mM in dimethylsulfoxide). The reaction mixture was incubated for 10 min at 30° C.
# The enzyme inhibitory activities were calculated using the following formula:
# Percent Inhibition=100−(O.D. of test/O.D. of control)×100
# Where test is the enzyme activity with sample, and control is the enzyme activity without sample, and O.D. is optical density.
# The IC50 of the compounds was calculated using EZ-Fit Enzyme Kinetic Program (Perrella Scientific Inc., Amhrest, U.S.A.).
# [3] = tested on: mouse fibroblast cell line (3T3); assay: MTT anti-proliferative assay, 3T3 cells; type: cell-based; details: for inhibition of the proliferation of 3T3 cells (in words): in comparison to cyclohexamide
# Description: as §1, §2, §3, §4
# T1 sequence (P07650 whole entry): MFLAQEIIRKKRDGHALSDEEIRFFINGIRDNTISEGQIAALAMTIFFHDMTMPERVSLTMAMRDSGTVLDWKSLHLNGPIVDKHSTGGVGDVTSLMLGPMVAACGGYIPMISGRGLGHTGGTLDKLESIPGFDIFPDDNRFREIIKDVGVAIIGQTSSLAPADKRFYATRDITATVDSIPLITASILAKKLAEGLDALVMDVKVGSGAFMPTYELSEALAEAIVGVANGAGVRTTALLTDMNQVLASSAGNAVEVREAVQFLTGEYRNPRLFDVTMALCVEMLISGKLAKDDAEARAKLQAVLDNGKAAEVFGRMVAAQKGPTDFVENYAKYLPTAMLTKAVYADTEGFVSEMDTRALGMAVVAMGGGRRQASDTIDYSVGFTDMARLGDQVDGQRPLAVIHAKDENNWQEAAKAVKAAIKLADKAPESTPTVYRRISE
smiles,measurement,setting,value
"O=C(N/N=C/c1ccccc1O)c1ccc(O)cc1 [Compound 1, 4-Hydroxy-N′-[(E)-(2-hydroxyphenyl)methylidene]benzohydrazide]",IC50,"[1]; Homo sapiens, PC-3, PC3 cells",7.58 ± 0.462 µM
same,inhibition of the proliferation of PC3 cancer cells (in words),[1],significantly inhibit
same,IC50,[2],189.1 ± 0.1 µM
same,inhibition of the proliferation of 3T3 cells (in words),[3],significantly inhibit
"O=C(N/N=C/c1cccc(O)c1)c1ccc(O)cc1 [Compound 2, 4-Hydroxy-N′-[(E)-(3-hydroxyphenyl)methylidene]benzohydrazide]","IC50 ± SD (μM), PC3 Cell Line",[1]; PC3 cells,Inactive
same,IC50,[2],180 ± 3 µM
same,"IC50 ± SD (μM), 3T3 Cell Line","[3]; 48 h, 3T3 cells",Inactive
"O=C(N/N=C/c1ccc(O)cc1)c1ccc(O)cc1 [Compound 3, 4-Hydroxy-N′-[(E)-(4-hydroxyphenyl)methylidene]benzohydrazide]","IC50 ± SD (μM), PC3 Cell Line",[1]; PC3 cells,Inactive
same,IC50,[2],199.4 ± 0.4 µM
same,"IC50 ± SD (μM), 3T3 Cell Line","[3]; 48 h, 3T3 cells",Inactive
"O=C(N/N=C/c1cccc(O)c1O)c1ccc(O)cc1 [Compound 4, 4-Hydroxy-N′-[(E)-(2,3-dihydroxyphenyl)methylidene]benzohydrazide]",IC50,"[1]; Homo sapiens, PC-3, PC3 cells",7.61 ± 0.49 µM
same,inhibition of the proliferation of PC3 cancer cells (in words),[1],significantly inhibit
same,IC50,[2],170.6 ± 0.5 µM
same,inhibition of the proliferation of 3T3 cells (in words),[3],significantly inhibit
"O=C(N/N=C/c1c(O)cc(O)cc1O)c1ccc(O)cc1 [Compound 7, 4-Hydroxy-N′-[(E)-(2,4,6-trihydroxyphenyl)methylidene]benzohydrazide]","IC50 (μM ± S.E.M.), thymidine phosphorylase inhibition",[2],Inactive
"O=C(N/N=C/c1ccc(O)c(O)c1O)c1ccc(O)cc1 [Compound 8, 4-Hydroxy-N′-[(E)-(2,3,4-trihydroxyphenyl)methylidene]benzohydrazide]","IC50 (μM ± S.E.M.), thymidine phosphorylase inhibition",[2],Inactive
"O=C(N/N=C/c1ccc(Cl)cc1Cl)c1ccc(O)cc1 [Compound 15, 4-Hydroxy-N′-[(E)-(2,4-dichlorophenyl)methylidene]benzohydrazide]","IC50 (μM ± S.E.M.), thymidine phosphorylase inhibition",[2],Inactive
"CN(C)c1ccc(/C=N/NC(=O)c2ccc(O)cc2)cc1 [Compound 17, 4-Hydroxy-N′-[(E)-[4-dimethylaminophenyl]methylidene]benzohydrazide]","IC50 (μM ± S.E.M.), thymidine phosphorylase inhibition",[2],unable to inhibit the enzyme; also recorded: Inactive
CSc1ccc(/C=N/NC(=O)c2ccc(O)cc2)cc1 [Compound 18],"IC50 (μM ± S.E.M.), thymidine phosphorylase inhibition",[2],unable to inhibit the enzyme; also recorded: Inactive
"O=C(N/N=C/c1cc(Br)ccc1O)c1ccc(O)cc1 [Compound 22, 4-Hydroxy-N′-[(E)-(5-bromo-2-hydroxyphenyl)methylidene]benzohydrazide]","IC50 (μM ± S.E.M.), thymidine phosphorylase inhibition",[2],Inactive
"O=C(N/N=C/c1cc(Cl)ccc1O)c1ccc(O)cc1 [Compound 23, 4-Hydroxy-N′-[(E)-(5-chloro-2-hydroxyphenyl)methylidene]benzohydrazide]","IC50 (μM ± S.E.M.), thymidine phosphorylase inhibition",[2],Inactive
"C/C(=N\NC(=O)c1ccc(O)cc1)c1ccccc1O [Compound 25, 4-Hydroxy-N′-[(E)-1-(2-Hydroxyphenyl)ethylidene]benzohydrazide]","IC50 (μM ± S.E.M.), thymidine phosphorylase inhibition",[2],Inactive
"C/C(=N\NC(=O)c1ccc(O)cc1)c1ccc(O)cc1O [Compound 26, 4-Hydroxy-N′-[(E)-1-(2,4-dihydroxyphenyl)ethylidene]benzohydrazide]","IC50 (μM ± S.E.M.), thymidine phosphorylase inhibition",[2],Inactive
"C[C@@H]1C[C@@H]([C@H](O)CC2CC(=O)NC(=O)C2)C(=O)[C@@H](C)C1 [Cyclohexamide, reference compound]",IC50,"[3]; 48 h, 3T3 cells, read-out: IC50 ± SD (μM), 3T3 Cell Line",0.26 ± 0.1 µM
"COc1cccc2c1C(=O)c1c(O)c3c(c(O)c1C2=O)C[C@@](O)(C(=O)CO)C[C@@H]3O[C@H]1C[C@H](N)[C@H](O)[C@H](C)O1 [Doxorubucin, reference compound]",IC50,[1]; PC3 cells,0.91 ± 0.1 µM
